Laboratory results taken from ChEMBL document CHEMBL1201862, “PubChem BioAssay data set” (2004).
Calls of active or inactive are those of the source.

How the values were obtained:
Cytochrome P450 3A4 = Cytochrome P450 3A4 (Homo sapiens, UniProt P08684); details: Potency;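 also: confirmatory qHTS run detecting inhibitors and substrates of CYP3A4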
[1] = target: T1, Corticotropin-releasing factor receptor 2/Corticotropin-releasing factor-binding protein (Homo sapiens, UniProt P24387+Q13324); assay: activators of CRF receptor 2 with binding protein – uHTS hits, confirmation (AID 602473); format: functional; details: read-out: EC50_Mean
T1 sequence (Q13324 whole entry): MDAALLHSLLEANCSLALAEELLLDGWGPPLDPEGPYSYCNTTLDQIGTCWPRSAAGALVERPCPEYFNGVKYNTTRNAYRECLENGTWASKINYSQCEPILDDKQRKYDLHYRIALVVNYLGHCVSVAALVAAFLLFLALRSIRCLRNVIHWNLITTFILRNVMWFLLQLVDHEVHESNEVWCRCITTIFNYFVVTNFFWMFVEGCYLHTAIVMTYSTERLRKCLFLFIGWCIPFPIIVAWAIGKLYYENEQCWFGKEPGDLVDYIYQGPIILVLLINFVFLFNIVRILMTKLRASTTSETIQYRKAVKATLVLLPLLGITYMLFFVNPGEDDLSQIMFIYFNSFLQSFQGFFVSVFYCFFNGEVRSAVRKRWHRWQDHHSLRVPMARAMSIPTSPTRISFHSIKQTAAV
T1 sequence (P24387 whole entry): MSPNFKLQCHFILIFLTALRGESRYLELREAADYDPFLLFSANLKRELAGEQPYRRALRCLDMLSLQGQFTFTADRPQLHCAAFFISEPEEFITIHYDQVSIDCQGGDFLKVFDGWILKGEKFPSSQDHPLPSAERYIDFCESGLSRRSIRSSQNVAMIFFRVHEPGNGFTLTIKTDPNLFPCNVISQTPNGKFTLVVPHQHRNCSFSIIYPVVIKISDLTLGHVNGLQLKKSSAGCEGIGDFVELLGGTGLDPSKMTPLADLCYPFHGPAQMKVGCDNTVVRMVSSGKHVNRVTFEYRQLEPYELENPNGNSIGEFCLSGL

[2] = target: T1, Corticotropin-releasing factor receptor 2/Corticotropin-releasing factor-binding protein; assay: Dose Response confirmation of uHTS hits for small molecule antagonists of the CRF-binding protein and CRF-R2 receptor complex.; format: functional; details: read-out: IC50_Mean
[3] = CRF-BP/CRF-R2 complex antagonists, dose response, cell-based, uHTS hits, 384-well (AID 651639); format: functional, Homo sapiens; details: read-out: IC50_Mean
[4] = A cytotoxicity screen of small molecule inhibitors of the PhoP region in Salmonella typhi identified in the primary screen. [Related pubchem assays: 1850, 1864, 1985 ]; format: functional
Prothrombin = Prothrombin (Homo sapiens, UniProt P00734); assay: Thrombin 1536 HTS Dose Response Confirmation. [Related pubchem assays: 1046 (Thrombin 1536 HTS; hits were confirmed in this assay)]; format: functional
[5] = target: FAD-linked sulfhydryl oxidase ALR (Homo sapiens, UniProt P55789); assay: inhibitors of human ALR sulfhydryl oxidase, dose response, biochemical, H2O2 detection, luminescence, cherry-pick (AID 493248)
FAD-linked sulfhydryl oxidase ALR, sequence (P55789 whole entry): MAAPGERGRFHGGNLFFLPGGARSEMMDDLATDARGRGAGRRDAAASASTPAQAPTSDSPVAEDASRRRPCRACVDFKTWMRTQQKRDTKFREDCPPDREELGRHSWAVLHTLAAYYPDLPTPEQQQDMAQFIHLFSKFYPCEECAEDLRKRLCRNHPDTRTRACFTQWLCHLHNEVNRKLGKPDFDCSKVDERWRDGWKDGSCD

[6] = target: Glyceraldehyde-3-phosphate dehydrogenase (Homo sapiens, UniProt P04406)
Glyceraldehyde-3-phosphate dehydrogenase, sequence (P04406 whole entry): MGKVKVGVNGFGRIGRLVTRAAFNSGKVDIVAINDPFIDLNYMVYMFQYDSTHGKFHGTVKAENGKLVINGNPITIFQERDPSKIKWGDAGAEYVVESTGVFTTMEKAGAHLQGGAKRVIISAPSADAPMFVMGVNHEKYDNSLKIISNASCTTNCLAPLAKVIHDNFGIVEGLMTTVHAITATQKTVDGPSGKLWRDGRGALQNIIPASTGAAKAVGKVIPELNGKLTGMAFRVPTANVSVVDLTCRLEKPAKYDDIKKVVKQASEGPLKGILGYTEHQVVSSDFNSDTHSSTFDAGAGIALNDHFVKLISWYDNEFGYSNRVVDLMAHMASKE

cells = format: functional
Genome polyprotein = Genome polyprotein (dengue virus type 2, UniProt P29990); assay: Dengue-2 NS5 methyltransferase inhibitors, primary screen, biochemical, confirmation dose response (AID 588689); format: functional
Genome polyprotein, sequence (P29990 2492-3391 limits assumed): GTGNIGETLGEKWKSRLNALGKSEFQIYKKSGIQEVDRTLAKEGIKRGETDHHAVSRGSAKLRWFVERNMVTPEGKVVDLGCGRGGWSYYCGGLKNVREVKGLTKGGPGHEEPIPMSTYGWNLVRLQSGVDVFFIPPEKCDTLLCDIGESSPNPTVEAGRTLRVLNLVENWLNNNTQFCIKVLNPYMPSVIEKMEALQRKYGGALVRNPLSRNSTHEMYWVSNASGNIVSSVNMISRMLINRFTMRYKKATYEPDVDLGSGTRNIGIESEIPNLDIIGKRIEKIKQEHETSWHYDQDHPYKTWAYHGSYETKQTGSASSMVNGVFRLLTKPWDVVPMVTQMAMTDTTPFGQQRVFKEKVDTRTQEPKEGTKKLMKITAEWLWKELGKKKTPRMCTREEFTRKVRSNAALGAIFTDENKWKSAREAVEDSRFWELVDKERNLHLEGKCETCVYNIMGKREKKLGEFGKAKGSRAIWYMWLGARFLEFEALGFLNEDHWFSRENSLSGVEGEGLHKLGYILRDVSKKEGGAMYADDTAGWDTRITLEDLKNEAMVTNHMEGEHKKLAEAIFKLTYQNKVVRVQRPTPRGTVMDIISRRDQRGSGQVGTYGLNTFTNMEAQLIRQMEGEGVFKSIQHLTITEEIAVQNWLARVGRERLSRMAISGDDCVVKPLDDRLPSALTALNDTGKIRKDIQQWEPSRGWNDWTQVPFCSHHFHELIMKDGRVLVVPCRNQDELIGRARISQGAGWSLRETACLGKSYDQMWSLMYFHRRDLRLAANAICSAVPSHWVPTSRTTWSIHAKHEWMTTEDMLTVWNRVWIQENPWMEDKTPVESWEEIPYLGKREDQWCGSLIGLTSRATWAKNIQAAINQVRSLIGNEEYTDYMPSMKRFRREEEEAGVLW

Large T antigen = Large T antigen (Simian virus 40, UniProt P03070); format: functional, Betapolyomavirus macacae;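 also: Confirmatory-stage PubChem screen for compounds that inhibit SV40 T antigen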
Large T antigen, sequence (P03070 whole entry): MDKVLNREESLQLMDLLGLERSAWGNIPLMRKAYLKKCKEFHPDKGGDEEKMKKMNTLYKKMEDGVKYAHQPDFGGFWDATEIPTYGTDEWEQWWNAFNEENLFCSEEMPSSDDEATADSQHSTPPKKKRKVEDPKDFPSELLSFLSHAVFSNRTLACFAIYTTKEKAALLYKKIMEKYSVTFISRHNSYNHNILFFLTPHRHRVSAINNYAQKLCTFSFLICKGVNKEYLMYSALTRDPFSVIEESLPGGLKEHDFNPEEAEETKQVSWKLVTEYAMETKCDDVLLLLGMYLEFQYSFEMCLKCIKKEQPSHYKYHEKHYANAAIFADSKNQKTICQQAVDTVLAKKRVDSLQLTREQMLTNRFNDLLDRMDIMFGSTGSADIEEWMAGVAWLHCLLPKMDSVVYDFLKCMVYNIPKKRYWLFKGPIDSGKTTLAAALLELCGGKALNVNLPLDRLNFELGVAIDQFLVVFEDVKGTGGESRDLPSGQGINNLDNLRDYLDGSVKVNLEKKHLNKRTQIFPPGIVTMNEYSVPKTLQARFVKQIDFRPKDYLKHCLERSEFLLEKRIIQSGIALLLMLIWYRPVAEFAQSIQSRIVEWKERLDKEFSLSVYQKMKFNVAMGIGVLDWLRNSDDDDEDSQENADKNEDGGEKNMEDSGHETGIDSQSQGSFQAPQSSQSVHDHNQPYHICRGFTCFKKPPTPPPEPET

[7] = target: DNA dC->dU-editing enzyme APOBEC-3G (Homo sapiens, UniProt Q9HC16); assay: Dose Response confirmation of small molecule APOBEC3G DNA Deaminase Inhibitors via a fluorescence-based single-stranded DNA deaminase assay. [Related pubchem assays (depositor defined):AID493012, AID493028]; format: functional
DNA dC->dU-editing enzyme APOBEC-3G, sequence (Q9HC16 whole entry): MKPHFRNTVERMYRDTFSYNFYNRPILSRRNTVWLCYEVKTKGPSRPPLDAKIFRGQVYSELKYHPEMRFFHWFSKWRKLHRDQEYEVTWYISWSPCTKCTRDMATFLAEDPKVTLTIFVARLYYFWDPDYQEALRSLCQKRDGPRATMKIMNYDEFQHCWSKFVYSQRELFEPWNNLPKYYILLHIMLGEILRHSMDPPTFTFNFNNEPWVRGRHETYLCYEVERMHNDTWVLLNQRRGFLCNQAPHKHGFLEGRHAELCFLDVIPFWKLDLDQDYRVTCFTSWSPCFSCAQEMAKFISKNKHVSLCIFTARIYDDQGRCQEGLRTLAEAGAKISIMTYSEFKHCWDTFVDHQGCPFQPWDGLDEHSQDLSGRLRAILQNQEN

Protein RecA = target: T2, Protein RecA (Mycobacterium tuberculosis, UniProt P9WHJ3); assay: Fluorescence Cell-Free Homogeneous Dose Retest to Identify Inhibitors of RecA-Intein Splicing Activity. [Related pubchem assays (depositor defined):AID2097, AID2223, AID489010, AID492950]; format: functional
T2 sequence (P9WHJ3 whole entry): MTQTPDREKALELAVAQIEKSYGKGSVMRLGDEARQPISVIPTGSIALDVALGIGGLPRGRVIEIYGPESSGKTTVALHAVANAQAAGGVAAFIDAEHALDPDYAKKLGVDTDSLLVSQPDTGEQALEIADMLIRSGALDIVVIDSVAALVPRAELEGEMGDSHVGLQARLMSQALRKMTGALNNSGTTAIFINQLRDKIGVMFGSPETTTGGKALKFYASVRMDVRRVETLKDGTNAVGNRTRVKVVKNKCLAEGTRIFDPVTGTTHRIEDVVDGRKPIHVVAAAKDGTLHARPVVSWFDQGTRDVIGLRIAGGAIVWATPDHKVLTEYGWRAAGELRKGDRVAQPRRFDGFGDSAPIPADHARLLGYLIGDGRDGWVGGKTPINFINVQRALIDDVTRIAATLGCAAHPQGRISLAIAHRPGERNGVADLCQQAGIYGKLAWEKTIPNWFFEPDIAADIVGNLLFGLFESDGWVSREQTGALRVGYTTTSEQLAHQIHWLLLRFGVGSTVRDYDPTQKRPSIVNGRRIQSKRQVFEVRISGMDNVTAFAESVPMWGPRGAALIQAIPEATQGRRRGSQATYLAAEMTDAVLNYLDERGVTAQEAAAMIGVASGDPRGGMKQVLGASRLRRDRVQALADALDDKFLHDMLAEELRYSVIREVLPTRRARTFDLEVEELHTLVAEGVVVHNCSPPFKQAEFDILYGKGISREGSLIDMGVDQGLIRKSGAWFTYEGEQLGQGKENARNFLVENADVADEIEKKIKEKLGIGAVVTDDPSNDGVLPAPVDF

[8] = target: T3, Replicative DNA helicase DnaB (Mycobacterium tuberculosis, UniProt P9WMR3); assay: DnaB intein splicing inhibitors, dose response, biochemical, cell-free fluorescence (AID 449749); format: functional
T3 sequence (P9WMR3 whole entry): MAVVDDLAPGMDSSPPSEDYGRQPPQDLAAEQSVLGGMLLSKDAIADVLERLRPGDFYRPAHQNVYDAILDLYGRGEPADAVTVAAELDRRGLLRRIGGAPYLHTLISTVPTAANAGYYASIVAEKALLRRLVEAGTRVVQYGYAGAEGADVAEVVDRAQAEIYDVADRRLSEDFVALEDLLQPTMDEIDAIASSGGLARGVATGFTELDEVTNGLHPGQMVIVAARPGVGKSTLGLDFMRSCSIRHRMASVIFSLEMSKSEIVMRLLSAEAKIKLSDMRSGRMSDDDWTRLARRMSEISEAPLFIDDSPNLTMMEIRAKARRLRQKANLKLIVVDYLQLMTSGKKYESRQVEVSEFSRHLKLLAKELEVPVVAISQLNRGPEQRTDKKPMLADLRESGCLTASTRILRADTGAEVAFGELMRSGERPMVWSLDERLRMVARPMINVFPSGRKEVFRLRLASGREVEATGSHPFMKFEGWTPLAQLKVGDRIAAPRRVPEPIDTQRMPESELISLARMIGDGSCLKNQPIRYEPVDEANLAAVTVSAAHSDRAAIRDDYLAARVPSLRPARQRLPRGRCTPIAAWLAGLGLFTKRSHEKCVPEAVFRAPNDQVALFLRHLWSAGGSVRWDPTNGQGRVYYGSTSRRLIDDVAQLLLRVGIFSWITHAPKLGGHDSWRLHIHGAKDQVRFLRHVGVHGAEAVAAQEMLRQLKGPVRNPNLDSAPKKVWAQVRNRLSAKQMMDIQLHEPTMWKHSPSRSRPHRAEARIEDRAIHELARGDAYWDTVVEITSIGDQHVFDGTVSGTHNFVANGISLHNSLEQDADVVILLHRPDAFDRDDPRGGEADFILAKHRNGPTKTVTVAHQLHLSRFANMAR

[9] = Shn3 3'UTR reporter inhibitors, dose response, cell-based, Clone20 osteoblasts, firefly luciferase, cherry-picked (AID 624132); format: functional;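 also: firefly luciferase luminescence from reporter carrying the Shn3 3'UTR in osteoblasts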
[10] = cytotoxicity toward NIH3T3 fibroblasts, dose response, counter-screen, cell-based, ATP luminescence, mouse fibroblasts (AID 2010); format: functional;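 also: cells exposed to compound for about 90 hours before reading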
[11] = inhibitors of intracellular T. cruzi replication, confirmation, NIH3T3 host cells, beta-gal luminescence (AID 2044); format: functional, cell-based;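 also: intracellular parasites grown in NIH/3T3 mouse fibroblasts as host cells; luminescent beta-galactosidase reporter signal from transgenic T. cruzi replicating inside host cells; inhibitors lower the luminescence signal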
[12] = control 3'UTR Renilla luciferase suppression, dose response, counter-screen for Shn3 inhibitor project, cell-based, Clone20-Shn3RL, cherry-picked (AID 624133); format: functional
[13] = target: T4, E3 ubiquitin-protein ligase XIAP (Homo sapiens, UniProt P98170); assay: XIAP antagonists, biochemical, IAP family, fluorescence polarization (AID 1018); format: functional
T4 sequence (P98170 whole entry): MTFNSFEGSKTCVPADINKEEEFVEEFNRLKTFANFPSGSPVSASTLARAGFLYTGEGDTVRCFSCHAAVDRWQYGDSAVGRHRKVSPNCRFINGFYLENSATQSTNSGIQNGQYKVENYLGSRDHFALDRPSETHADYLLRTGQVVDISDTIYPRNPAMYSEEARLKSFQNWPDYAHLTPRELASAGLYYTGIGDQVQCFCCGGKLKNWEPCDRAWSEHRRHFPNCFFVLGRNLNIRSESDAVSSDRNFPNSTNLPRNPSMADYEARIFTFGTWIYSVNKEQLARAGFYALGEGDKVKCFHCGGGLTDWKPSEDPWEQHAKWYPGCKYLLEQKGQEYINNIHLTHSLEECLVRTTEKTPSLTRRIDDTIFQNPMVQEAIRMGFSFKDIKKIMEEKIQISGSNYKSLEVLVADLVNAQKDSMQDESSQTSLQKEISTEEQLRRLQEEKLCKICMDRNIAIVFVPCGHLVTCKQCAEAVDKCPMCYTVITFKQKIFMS

[14] = target: T4, E3 ubiquitin-protein ligase XIAP; assay: Counter Screen using XIAP-Bir3 for Chemical Antagonists of Bir1/2 domains of IAP-family anti-apoptotic proteins. [Related pubchem assays (depositor defined):AID1018, AID1449, AID1514, AID1638, AID1749, AID1750, AID488957, AID488963]
H9c2 = assay: cells; format: functional, cell-based; details: Rattus norvegicus, H9c2, Myocardium;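 also: confirmatory concentration-response retest of ultra-high-throughput screening hits for modulation of myocardial damage; cell death induced by hydrogen peroxide oxidative stress; compound pretreatment for 60 min then peroxide exposure for 2 h; potency is for protecting the cells against peroxide damage rather than for killing them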
[15] = intracellular Trypanosoma cruzi inhibitors in host cells – cell-based, plate reader, cherry-pick samples, set 3, dose response (AID 651818); format: functional;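 also: compounds incubated with infected cells for about four days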

Cytochrome P450 3A4, sequence (P08684 whole entry): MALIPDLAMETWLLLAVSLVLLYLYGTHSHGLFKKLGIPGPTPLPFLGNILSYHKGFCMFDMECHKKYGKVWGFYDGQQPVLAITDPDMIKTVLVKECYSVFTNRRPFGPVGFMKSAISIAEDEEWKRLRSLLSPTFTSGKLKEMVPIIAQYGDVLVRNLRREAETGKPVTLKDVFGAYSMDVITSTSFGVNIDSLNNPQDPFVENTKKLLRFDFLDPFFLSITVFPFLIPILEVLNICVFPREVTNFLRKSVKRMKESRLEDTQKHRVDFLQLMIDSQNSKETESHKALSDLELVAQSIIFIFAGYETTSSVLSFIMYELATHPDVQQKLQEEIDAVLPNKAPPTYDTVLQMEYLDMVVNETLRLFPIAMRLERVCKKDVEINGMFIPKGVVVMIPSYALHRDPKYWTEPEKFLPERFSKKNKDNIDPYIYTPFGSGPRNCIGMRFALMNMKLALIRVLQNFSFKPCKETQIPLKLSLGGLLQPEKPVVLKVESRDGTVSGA

C=C(CC(=O)OC)C[C@]1(CC(=O)OC)CC2(CC=C(C)C)C(=O)C(C(=O)c3ccccc3)=C(OC(=O)c3ccc(Br)cc3)C(CC=C(C)C)(C1)C2=O (stereo partly specified)
AC50 (Cytochrome P450 3A4): 3.16 µM (inconclusive)

Cc1cc([N+](=O)[O-])ccc1NC1CCCC1
EC50 [1]: > 53 µM (inactive)
IC50 [2]: 7.24 µM (active)
IC50 [3]: 12.8 µM (active)

O=C(/C=C/c1ccccc1Cl)Nc1cccc(O)c1
EC50 [4]: > 50 µM (active)

CCc1cccc(CC)c1NC(=O)c1cccc(N)c1
IC50 (Prothrombin): > 50 µM (not active)

CCOC(=O)Cc1csc(NC(=S)NC(=O)c2ccc([N+](=O)[O-])cc2)n1
EC50 [1]: 18 µM (active)
IC50 [2]: 16.7 µM (active)
IC50 [3]: > 20 µM (inactive)

Cc1ccc(S(=O)(=O)NNc2ccccc2)c(C)c1
EC50 [4]: > 50 µM (active)
AC50 [5]: 0.319 µM (active)

Cc1c(O)c(O)cc2c1oc1c3ccccc3oc(=O)c21
AC50 (Cytochrome P450 3A4): 20 µM (inconclusive)

COc1ccc(-c2coc3ccc(OC4OC(COC(C)=O)C(OC(C)=O)C(OC(C)=O)C4OC(C)=O)c(OC(C)=O)c3c2=O)cc1 (stereo unspecified)
AC50 (Cytochrome P450 3A4): 15.8 µM (inconclusive)

O=C(O)CSc1nc2ccc(Br)cc2o1
IC50 [6]: > 100 µM (not active)

CC(C)c1ccc(NC(=O)COc2ccccn2)cc1
IC50 (Prothrombin): > 50 µM (not active)

COc1cc(/C=C2/C(=O)NN(c3cccc(C)c3)C2=O)ccc1OC(=O)c1ccco1
IC50 (cells): 19.9 µM (active)
IC50 (Genome polyprotein): 64 µM (active)
IC50 (Large T antigen): 32.1 µM (active)

S=C([S-])NCCNC(=S)[S-].[Zn+2]
AC50 (Cytochrome P450 3A4): 25.1 µM (inconclusive)

Cc1nc([N+](=O)[O-])c(SCc2ccc(O)c([N+](=O)[O-])c2)[nH]1
IC50 [7]: 77.9 µM (active)

CSc1nc(-c2ccccc2)nn1C(=O)c1ccc(Cl)cc1
IC50 (Prothrombin): 0.725 µM (active)
EC50 (Protein RecA): 44.3 µM (active)
AC50 [8]: 4.38 µM (active)

O=C(Nc1cc2c3c(c1)C1CCCC1CN3CC1CCCC21)c1ccc([N+](=O)[O-])cc1 (stereo unspecified)
IC50 (Prothrombin): > 50 µM (not active)
AC50 [9]: 2.2 µM (active)
EC50 [10]: > 60 µM (inconclusive)
EC50 [11]: 1.07 µM (active)
AC50 [12]: 4.88 µM (active)

Cc1ccc(S(=O)(=O)N(C)C)cc1NC(=S)NC12CC3CC(CC(C3)C1)C2
IC50 [13]: > 100 µM (not active)
IC50 [14]: > 100 µM (inactive)

CCCn1c(C)nc2c(N3CCOCC3)nc(C)nc21
AC50 (Cytochrome P450 3A4): 7.94 µM (inconclusive)

CCOc1ccc(NC(=O)c2ccc(N)cc2)cc1
EC50 [4]: > 50 µM (active)

Nc1nnc(SCc2cc3c(cc2Cl)OCO3)s1
EC50 [1]: > 53 µM (inactive)
IC50 [2]: 22.5 µM (active)
IC50 [3]: > 20 µM (inactive)

Cc1cccc(NC(=S)NC23CN4CN(CN(C4)C2)C3)c1
IC50 (Prothrombin): > 50 µM (not active)

Cc1cccn2c(=O)c3cc(C(=O)NCC4CCCO4)c(=N)n(C4CCCC4)c3nc12 (stereo unspecified)
EC50 [4]: > 50 µM (active)

O=C(Nc1cc(S(=O)(=O)N2CCOCC2)ccc1N1CCCCC1)c1cc(-c2ccccn2)nc2ccccc12
IC50 [7]: 92.6 µM (active)
IC50 (H9c2): > 79 µM (inactive)

COc1ccccc1CCNC(=O)CCn1nc(C)c2c(C)n(-c3ccccc3)nc2c1=O
EC50 [1]: > 53 µM (inactive)
IC50 [2]: 41.1 µM (active)
IC50 [3]: > 20 µM (inactive)

C[C@@H]1CN([C@@H](C)CO)C(=O)Cc2cc(NC(=O)Nc3cccc4ccccc34)ccc2O[C@@H]1CN(C)Cc1ccc(C(F)(F)F)cc1
AC50 [15]: 3.08 µM (active)

CSc1nc(C)c(C(=O)C[n+]2ccccc2C)cc1C#N
EC50 [1]: > 53 µM (inactive)
IC50 [2]: < 0.368 µM (active)
IC50 [3]: > 20 µM (inactive)

C[C@@H]1CCCCO[C@@H](CN(C)Cc2ccc(Cl)c(Cl)c2)[C@@H](C)CN([C@H](C)CO)C(=O)c2cc(NS(=O)(=O)c3ccc(F)cc3)ccc2O1
AC50 [15]: 4.38 µM (active)

C[C@@H]1CN([C@@H](C)CO)C(=O)Cc2cc(NC(=O)Nc3ccc(C(F)(F)F)cc3)ccc2O[C@@H]1CN(C)Cc1ccc(C(F)(F)F)cc1
AC50 [15]: 3.26 µM (active)

COc1ccc(NC(=O)Nc2ccc3c(c2)CC(=O)N([C@@H](C)CO)C[C@@H](C)[C@@H](CN(C)Cc2ccc(C(=O)Nc4ccccc4N)cc2)O3)cc1
AC50 [15]: 2.51 µM (active)

C[C@@H]1CN([C@H](C)CO)C(=O)c2cccc(NC(=O)Nc3ccc4c(c3)OCO4)c2O[C@H]1CN(C)Cc1ccc(C(=O)Nc2ccccc2N)cc1
AC50 [15]: 0.743 µM (active)

Cc1cc(C)n(/N=C/c2cc([N+](=O)[O-])ccc2O)c(=O)c1
EC50 [4]: > 50 µM (active)
